Experimental data published in publication PMC6201930 (PLoS ONE, 2018).
Where “and” joins values, the source holds several entries; their conditions need not be identical. Equal values may be shown once. Read-outs that look alike come from different tables or passages of the source.

Legend:
[1] = system: p53 R213* UGA premature termination codon in HDQ-P1 mammary carcinoma cells; experiment: HDQ-p53UGA213 readthrough assay (full-length p53, MSD immunoassay); assay type: cell-based, human; conditions: for HDQ-p53UGA213 (Maxfold): maximum readthrough activity above background
Method: We utilized HDQ-P1 mammary carcinoma cells, which are homozygous for R213*, a UGA premature termination codon in the gene for the tumor suppressor protein p53 [30]. […] Western blot hybridization and Meso Scale Discovery (MSD) immunoassay detection of p53 were done as previously described. […] Cells (45K per well) were grown in 96-well plates and treated with compounds for 24 hours. […] Cells were lysed with 60 μl per well of lysis buffer (20 mM Tris-HCL, pH 7.5, 1 mM EGTA, 1 mM EDTA,150 mM Nacl, 0.5% Triton X100) for one hour at room temperature and 30 μl of lysate per well were transferred to the coated plate and incubated overnight at 4 °C. […] Plates were then washed three times with PBS-T and 30 μl of 0.25 μ/ml goat anti-rabbit IgG-Sulfo-tag antibody (MSD) in TBS-C was added and incubated for 1 hour at room temperature. Plates were then washed three times with PBS-T and 150 μl read buffer (MSD) was added. Plates were read immediately in a SECTOR S 600 (MSD).

[2] = system: tGFP-CFTR542X-HA-HIS construct (codon 542 UGA) in 293H cells; experiment: tGFP-542X readthrough assay (HA-HIS MSD immunoassay); assay type: cell-based, human
[3] = system: fLuc mRNA harboring a UGA nonsense mutation at codon 190 (fLuc-190-NS); assay type: biochemical, rabbit
Excerpt: ThefLuc-190-NS assay is an in vitro rabbit reticulocyte lysate translation of an fLuc mRNA harboring a UGA nonsense mutation at codon 190 (fLuc-190-NS). It is believed that positively charged aminoglycosides are poorly taken up by cells, and we used this cell-free readthrough assay to eliminate the potential variable of cell uptake when measuring readthrough potency. […] Readthrough protein was detected using a HA-HIS MSD immunoassay described previously.
This cell-free translation assay used synthetic LUC mRNAs harboring an EMCV IRES and LUC codon 190-UGA premature stop codon prepared using the MegaScript in vitro transcription kit (Ambion). Translation reactions were done with the Rabbit Reticulocyte Lysate System (Promega) with 100 ng RNA and increasing concentrations of aminoglycosides. The amount of luminescence produced was determined after approximately 4 hours using a Viewlux CCD imager (Perkin-Elmer). Fold suppression over background was calculated as (aminoglycoside light units/PBS light units).

in vitro [4] = conditions: human
Excerpt: (§1) When considering compounds for potential readthrough therapy it is important to monitor cellular and animal safety. In order to determine the most promising compounds to further evaluate in in vivo safety, we measured cytotoxicity in two different cell types. We used activated human peripheral blood mononuclear cells (PBMCs) (Table 2 and Fig 2D and 2E). PBMCs are a primary cell that when activated with phytohaemagglutinin (PHA) expand quickly and are commonly used as an in vitro surrogate for rapidly growing cells in the human body to evaluate cytotoxicity. Prior to advancing compounds into human studies, safety evaluation in rodents is performed. As an in vitro surrogate for rodent toxicity, we used primary mouse myoblasts.
(§2) Frozen human Peripheral Blood Mononuclear Cells (PBMCs) were obtained from […] (Alameda, CA, Cat# PB003F) from a single donor. […] Plates were incubated at 37°C with 5% CO2 for 4 hours prior to compound treatment. Compounds were serially diluted and added to the plates. Plates were incubated at 37°C, 5% CO2 incubator, for 72 hours prior to determinations of ATP levels. Cell viability was determined using a chemiluminescent assay to monitor adenosine triphosphate (ATP) levels in live cells (CellTitre-Glo; CTG; Promega, Cat#G7571). Methods were performed per the manufacturer’s instructions.

[5] = system: activated human peripheral blood mononuclear cells (PBMCs); experiment: Cytotoxicity in stimulated PBMCs (CellTitre-Glo ATP); conditions: for CC50: read-out: Stimulated PBMC CC50, individual determinations (S1 File)
Excerpt: as §1, §2

in vitro [6] = conditions: mouse
Excerpt: as §1

[7] = Pharmacokinetics of aminoglycosides in the rat; conditions: sc, 10 mg/kg
Method: Test compounds were dissolved in PBS at 1 mg/mL and administered subcutaneously in a volume of 10 mL/kg to deliver a dose of 10 mg/kg. […] At 24 hours, the rat was euthanized and in addition to blood, quadriceps and kidney tissues were collected for subsequent analysis.
Blood was collected into tubes containing dipotassium ethylenediaminetetraacetic acid (K2 EDTA) as the anticoagulant and rotated at room temperature until the blood was centrifuged and the plasma recovered for subsequent analysis by liquid chromatography with tandem mass spectroscopy (LC-MS/MS). Noncompartmental toxicokinetic parameters were determined using Phoenix WinNonLin version 6.1 (Pharsight Corporation, Carey NC).
The concentrations of test compound in plasma, kidney and muscle were quantified by liquid chromatography-tandem mass spectrometry (LC-MS/MS). Briefly, the plasma and tissue homogenate samples were treated with acetonitrile-methanol mixture containing an internal standard that is a close analog of the test compounds. The treated plasma and […] homogenate samples were centrifuged and the supernatant was collected and analyzed using electro-spray LC-MS/MS.

[8] = system: zebrafish neuromasts (hair cells); experiment: Neuromast toxicity assay (DASPEI staining); conditions: read-out: Neuromast CC50; individual determinations (S1 File)
Method: All neuromast cytotoxicity assays were done at Biobide–BBD Biophenix SL (Gipuzkoa, Spain). […] Compounds were tested at 5 doses. After 24 hours of exposure embryos were incubated in DASPEI (2-(4-(dimethylamino)styryl) -N-Ethylpyridinium Iodide) for neuromast staining. Images of each embryo were taken and neuromasts counted. A compound was classified as ototoxic when the number of neuromasts in the treated group was less than that in the untreated control group (One Way ANOVA, multiple comparisons vs. vehicle).

[9] = concentration required to double the level of full-length p53 protein, average ± SD, at least three experiments, highest concentration 300 μM
[10] = AVERAGE (S1 File), unit not given for EC5X
[11] = individual experiments (S1 File)
[12] = individual experiments (S1 File), unit not printed for EC5X (EC2X of the sheet in uM)
[13] = maximum readthrough above background, average ± SD
[14] = Stimulated PBMC (CC50), PHA/IL-2 stimulated, 72 hours, average ± SD
[15] = Stimulated PBMC CC50, AVERAGE (S1 File)

Compound	HDQ-p53UGA213 EC2X ([1]; AVERAGE (S1 File)) [µM]	HDQ-p53UGA213 max ([1]; AVERAGE (S1 File))	HDQ-p53UGA213 EC2X [1, 9] [µM]	HDQ-p53UGA213 (Maxfold) ([1]; average ± SD) [fold]	tGFP-542X EC2X ([2]; AVERAGE (S1 File)) [µM]	tGFP-542X Maxfold ([2]; AVERAGE (S1 File))	tGFP-542X EC5X [2, 10]	tGFP-542X EC2X [2, 11]	tGFP-542X Maxfold [2, 11]	tGFP-542X EC5X [2, 12]	tGFP-542X Maxfold [2, 13] [fold]	fLuc-190-NS EC2X ([3]; AVERAGE (S1 File)) [µM]	fLuc-190-NS MaxFold ([3]; AVERAGE (S1 File))	fLuc-190-NS EC5X [3, 10]	fLuc-190-NS EC2X ([3]; cell-free, average ± SD) [µM]	fLuc-190-NS MaxFold ([3]; cell-free, average ± SD) [fold]	fLuc-190-NS EC2X [3, 11]	fLuc-190-NS MaxFold [3, 11]	fLuc-190-NS EC5X [3, 12]	CC50 [5]	other results
CN[C@@H]1[C@@H](O)[C@@H](O[C@@H]2[C@@H](O)[C@H](O[C@H]3O[C@H]([C@@H](C)O)[C@@H](O)[C@H](O)[C@H]3N)[C@@H](N)C[C@H]2N)OC[C@]1(C)O [G418, reference compound]	9.3	43.8	9 ± 5	44 ± 19	9.0	318.3	24.8	8 µM and 15 µM and 5 µM	373 and 420 and 226 and 255	22 and 18 and 33 and 27	318 ± 93	0.0064	53.0	0.0260	0.0064 ± 0.0002	53 ± 2	0.0067 µM and 0.0063 µM	51.05 and 54.30 and 53.65	0.0261 and 0.0252 and 0.0267	270 µM and 289 µM and 294 µM and 295 µM and 372 µM and 440 µM and 458 µM and 473 µM and 841 µM and 853 µM and 914 µM and 1060 µM	tGFP-542X EC2X ([2]; 293H cells, 24 hours, average ± SD): 9 ± 4 µM; CC50 (in vitro [4]; [14]): 546 ± 286 µM; CC50 (in vitro [4]; [15]): 546 µM; CC50 (in vitro [6]; Myoblast (CC50), average ± SD): 166 ± 100 µM; CC50 (in vitro [6]; Myoblast CC50, AVERAGE (S1 File)): 166 µM; AUC ([7]; in vivo): 15000 ng·h/mL; AUC(0-t) ([7]; in vivo): 15000 ng·h/mL; Cmax ([7]; in vivo): 7400 ng/mL; Tmax ([7]; in vivo): 0.33 h; half-life ([7]; in vivo): 1.5 h; concentration at 24 h ([7]; in vivo, Kidney levels, 10 mg/kg subcutaneous, 24 hours post-dose, mean ± SD of three rats): 12000 ± 3000 ng/g; concentration at 24 h ([7]; in vivo, levels in the quadriceps, 10 mg/kg subcutaneous, 24 hours after dosing): ~40 ng/g; concentration at 24 h ([7]; in vivo, plasma levels, 10 mg/kg subcutaneous, 24 hours after dosing, at or below lower limit of quantification): ≤ 1 ng/g; CC50 [8]: 3.6 µM
CN[C@@H]1[C@@H](O)[C@@H](O[C@@H]2[C@@H](O)[C@H](O[C@H]3O[C@H](CO)[C@@H](O)[C@H](O)[C@H]3N)[C@@H](N)C[C@H]2N)OC[C@]1(C)O (stereo in doubt) [Gentamicin X2, gentamicin X2]	18.6	39.1	19 ± 6	39 ± 31	18.6	135.0	101.5	18.5 µM and 10.25 µM and 10.65 µM and 11.55 µM and 13.08 µM and 5.70 µM and 9.22 µM and 17.7 µM and 40.0 µM and 49.3 µM	235 and 85	52 and 120 and 133	135 ± 87	0.0288	195.3	0.0696	0.029 ± 0.009	195 ± 18	0.0300 µM and 0.0373 µM and 0.0192 µM	193.99 and 177.60 and 214.25	0.0904 and 0.0449 and 0.0734	2590 µM and 2630 µM and 2940 µM	HDQ-p53UGA213 EC2X [1, 11]: 19.47 µM and 16.13 µM and 19.14 µM and 12.27 µM and 19.04 µM and 21.26 µM and 22.25 µM and 17.98 µM and 6.97 µM and 32.75 µM and 17.45 µM and 17.38 µM and 19.08 µM; HDQ-p53UGA213 max ([1]; individual experiments (S1 File), max fold): 23.4 and 60.4 and 40.4 and 95 and 8.4 and 8 and 12.7 and 10.6 and 84.8 and 5.1 and 37.4 and 60.1 and 62.2; CC50 at 72 h (in vitro [4]; [14]): 2970 ± 533 µM; CC50 at 72 h (in vitro [4]; [15]): 2970 µM; CC50 at 72 h (in vitro [4]; Stimulated PBMC CC50, individual determinations (S1 File)): 3740 µM; safety window (average CC50 / average EC2X) ([5]; PBMCs, compared with NB84, NB124 or G418, 95% confidence limits): statistically better safety window; CC50 (in vitro [6]; primary mouse myoblasts, Myoblast (CC50), average ± SD): 834 ± 623 µM; CC50 (in vitro [6]; primary mouse myoblasts, Myoblast CC50, AVERAGE (S1 File)): 834 µM; concentration at 24 h ([7]; kidney): 7000 ± 1000 ng/g; AUC ([7]; plasma): 13000 ng·h/mL; AUC(0-t) ([7]; plasma): 13000 ng·h/mL; Cmax ([7]; plasma): 5600 ng/mL; Tmax ([7]; plasma): 0.5 h; concentration at 24 h ([7]; plasma): ≤ 1 ng/g; half-life ([7]; plasma): 2.6 h; concentration at 24 h ([7]; quadriceps): ~40 ng/g; CC50 [8]: 8.7 µM and 19 µM
